Measured values reported in patent publication US8420675B2, “Aminotetrahydroindazoloacetic acids” (Hoffmann-La Roche Inc., priority 2008, dated 2013).

Molecular target: T1, human CRTH2 (Homo sapiens, UniProt Q9Y5Y4)
T1 construct: expressed in transfected cells
T1 sequence (Q9Y5Y4 1-395): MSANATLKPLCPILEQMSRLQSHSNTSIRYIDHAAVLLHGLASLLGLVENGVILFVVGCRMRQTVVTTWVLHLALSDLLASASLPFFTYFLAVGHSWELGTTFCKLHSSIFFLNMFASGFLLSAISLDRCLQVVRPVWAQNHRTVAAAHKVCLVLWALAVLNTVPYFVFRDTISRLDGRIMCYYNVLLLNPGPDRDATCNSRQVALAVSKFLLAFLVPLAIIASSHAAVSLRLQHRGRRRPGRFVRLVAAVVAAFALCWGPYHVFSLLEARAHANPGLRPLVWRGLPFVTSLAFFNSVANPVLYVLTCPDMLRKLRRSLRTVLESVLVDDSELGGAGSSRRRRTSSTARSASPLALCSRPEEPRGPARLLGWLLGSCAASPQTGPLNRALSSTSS
Assay: Human CRTH2 Receptor Binding Assay (whole cell, [3H]ramatroban competition)
Conditions: CHO-K1 cells expressing human CRTH2 and G-alpha16; 20 nM [3H]ramatroban; 1 hour, room temperature
In short: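 CHO-K1 cells stably co-expressing human CRTH2 and G-alpha16, 1.5×10^5 per reaction, incubated 1 hour at room temperature with 20 nM [3H]ramatroban in PBS containing 10 mM MgCl2 and 0.06% BSA. Non-specific binding defined with 10 μM 15(R)-15-methyl PGD2. IC50 from 7 concentrations by 4-parameter logistic fit of specific binding inhibition.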

Structure (SMILES)	IC50 [nM]
CC(=O)Nc1ccc(Oc2ccc(S(=O)(=O)N(C)[C@@H]3CCCc4c3cnn4CC(=O)O)cc2Cl)cc1 [Example 9-27a, ((R)-4-{[4-(4-Acetylamino-phenoxy)-3-chloro-benzenesulfonyl]-methyl-amino}-4,5,6,7-tetrahydro-indazol-1-yl)-acetic acid]	49.1
CN([C@@H]1CCCc2c1cnn2CC(=O)O)S(=O)(=O)c1ccc(Oc2ccc(OC(F)(F)F)cc2)c(Cl)c1 [Example 9-28a, ((R)-4-{[3-Chloro-4-(4-trifluoromethoxy-phenoxy)-benzenesulfonyl]-methyl-amino}-4,5,6,7-tetrahydro-indazol-1-yl)-acetic acid]	11.8
CN([C@@H]1CCCc2c1cnn2CC(=O)O)S(=O)(=O)c1cc(F)c(Oc2ccc(F)cc2)cc1Cl [Example 9-29a, ((R)-4-{[2-Chloro-5-fluoro-4-(4-fluoro-phenoxy)-benzenesulfonyl]-methyl-amino}-4,5,6,7-tetrahydro-indazol-1-yl)-acetic acid]	151
CN([C@@H]1CCCc2c1cnn2CC(=O)O)S(=O)(=O)c1cc(Cl)c(Oc2ccc(F)cc2)cc1F [Example 9-30a, ((R)-4-{[5-Chloro-2-fluoro-4-(4-fluoro-phenoxy)-benzenesulfonyl]-methyl-amino}-4,5,6,7-tetrahydro-indazol-1-yl)-acetic acid]	37.7
COc1ccc(Oc2ccc(S(=O)(=O)N(C)[C@@H]3CCCc4c3cnn4CC(=O)O)cc2Cl)cc1 [Example 9-31a, ((R)-4-{[3-Chloro-4-(4-methoxy-phenoxy)-benzenesulfonyl]-methyl-amino}-4,5,6,7-tetrahydro-indazol-1-yl)-acetic acid]	6.8
CN([C@@H]1CCCc2c1cnn2CC(=O)O)S(=O)(=O)c1ccc(Oc2ccc(F)cc2F)c(Cl)c1 [Example 9-32a, ((R)-4-{[3-Chloro-4-(2,4-difluoro-phenoxy)-benzenesulfonyl]-methyl-amino}-4,5,6,7-tetrahydro-indazol-1-yl)-acetic acid]	7.6
CN([C@@H]1CCCc2c1cnn2CC(=O)O)S(=O)(=O)c1ccc(Oc2c(F)cccc2F)c(Cl)c1 [Example 9-33a, ((R)-4-{[3-Chloro-4-(2,6-difluoro-phenoxy)-benzenesulfonyl]-methyl-amino}-4,5,6,7-tetrahydro-indazol-1-yl)-acetic acid]	10.6
CN([C@@H]1CCCc2c1cnn2CC(=O)O)S(=O)(=O)c1ccc(Oc2ccc(C#N)cc2)c(Cl)c1 [Example 9-34a, ((R)-4-{[3-Chloro-4-(4-cyano-phenoxy)-benzenesulfonyl]-methyl-amino}-4,5,6,7-tetrahydro-indazol-1-yl)-acetic acid]	4.6
Cc1cc(S(=O)(=O)N(C)[C@@H]2CCCc3c2cnn3CC(=O)O)ccc1Oc1ccc(F)cc1 [Example 9-35a, ((R)-4-{[4-(4-Fluoro-phenoxy)-3-methyl-benzenesulfonyl]-methyl-amino}-4,5,6,7-tetrahydro-indazol-1-yl)-acetic acid]	17.1
CN([C@@H]1CCCc2c1cnn2CC(=O)O)S(=O)(=O)c1ccc(Oc2ccc(C(N)=O)cc2)c(Cl)c1 [Example 9-36a, ((R)-4-{[4-(4-Carbamoyl-phenoxy)-3-chloro-benzenesulfonyl]-methyl-amino}-4,5,6,7-tetrahydro-indazol-1-yl)-acetic acid]	23.1
CN([C@@H]1CCCc2c1cnn2CC(=O)O)S(=O)(=O)c1ccc(Oc2ccccc2F)c(Cl)c1 [Example 9-37a, ((R)-4-{[3-Chloro-4-(2-fluoro-phenoxy)-benzenesulfonyl]-methyl-amino}-4,5,6,7-tetrahydro-indazol-1-yl)-acetic acid]	14.8
Cc1cc(F)ccc1Oc1ccc(S(=O)(=O)N(C)[C@@H]2CCCc3c2cnn3CC(=O)O)cc1Cl [Example 9-38a, ((R)-4-{[3-Chloro-4-(4-fluoro-2-methyl-phenoxy)-benzenesulfonyl]-methyl-amino}-4,5,6,7-tetrahydro-indazol-1-yl)-acetic acid]	8
CN([C@@H]1CCCc2c1cnn2CC(=O)O)S(=O)(=O)c1cc(F)c(Oc2ccc(F)cc2)c(F)c1 [Example 9-39a, ((R)-4-{[3,5-Difluoro-4-(4-fluoro-phenoxy)-benzenesulfonyl]-methyl-amino}-4,5,6,7-tetrahydro-indazol-1-yl)-acetic acid]	10.4
CN([C@@H]1CCCc2c1cnn2CC(=O)O)S(=O)(=O)c1ccc(Oc2ccc(F)cc2)c(Br)c1 [Example 9-40a, ((R)-4-{[3-Bromo-4-(4-fluoro-phenoxy)-benzenesulfonyl]-methyl-amino}-4,5,6,7-tetrahydro-indazol-1-yl)-acetic acid]	7.9
CN([C@@H]1CCCc2c1cnn2CC(=O)O)S(=O)(=O)c1ccc(Oc2ccc(F)cc2)c(C(F)(F)F)c1 [Example 9-41a, ((R)-4-{[4-(4-Fluoro-phenoxy)-3-trifluoromethyl-benzenesulfonyl]-methyl-amino}-4,5,6,7-tetrahydro-indazol-1-yl)-acetic acid]	7.5
CN([C@@H]1CCCc2c1cnn2CC(=O)O)S(=O)(=O)c1cc(Oc2ccc(F)cc2)cc(C(F)(F)F)c1 [Example 9-42a, ((R)-4-{[3-(4-Fluoro-phenoxy)-5-trifluoromethyl-benzenesulfonyl]-methyl-amino}-4,5,6,7-tetrahydro-indazol-1-yl)-acetic acid]	22.6
COc1ccc(-c2ccc(S(=O)(=O)NC3CCCc4c3cnn4CC(=O)O)cc2)cc1 (stereo not shown) [Example 10-1a, [4-(4′-Methoxy-biphenyl-4-sulfonylamino)-4,5,6,7-tetrahydro-indazol-1-yl]-acetic acid]	215
O=C(O)Cn1ncc2c1CCCC2NS(=O)(=O)c1ccc(-c2cccnc2)cc1 (stereo not shown) [Example 10-2a, [4-(4-Pyridin-3-yl-benzenesulfonylamino)-4,5,6,7-tetrahydro-indazol-1-yl]-acetic acid]	371

More lines, now with the values ahead:

IC50 [nM]	Structure (SMILES)
194	CCOc1ccc(-c2ccc(S(=O)(=O)NC3CCCc4c3cnn4CC(=O)O)cc2)cc1 (stereo not shown) [Example 10-3a, [4-(4′-Ethoxy-biphenyl-4-sulfonylamino)-4,5,6,7-tetrahydro-indazol-1-yl]-acetic acid]
257	O=C(O)Cn1ncc2c1CCCC2NS(=O)(=O)c1ccc(-c2ccccc2Cl)cc1 (stereo not shown) [Example 10-4a, [4-(2′-Chloro-biphenyl-4-sulfonylamino)-4,5,6,7-tetrahydro-indazol-1-yl]-acetic acid]
369	COc1ccc(-c2cccc(S(=O)(=O)NC3CCCc4c3cnn4CC(=O)O)c2)cc1 (stereo not shown) [Example 10-5a, [4-(4′-Methoxy-biphenyl-3-sulfonylamino)-4,5,6,7-tetrahydro-indazol-1-yl]-acetic acid]
207	O=C(O)Cn1ncc2c1CCCC2NS(=O)(=O)c1ccc(-c2ccc(Cl)cc2)cc1 (stereo not shown) [Example 10-6a, [4-(4′-Chloro-biphenyl-4-sulfonylamino)-4,5,6,7-tetrahydro-indazol-1-yl]-acetic acid]
300	O=C(O)Cn1ncc2c1CCCC2NS(=O)(=O)c1ccc(-c2ccc(F)cc2)cc1 (stereo not shown) [Example 10-7a, [4-(4′-Fluoro-biphenyl-4-sulfonylamino)-4,5,6,7-tetrahydro-indazol-1-yl]-acetic acid]
412	O=C(O)Cn1ncc2c1CCCC2NS(=O)(=O)c1ccc(-c2ccccc2)c(F)c1 (stereo not shown) [Example 10-8a, [4-(2-Fluoro-biphenyl-4-sulfonylamino)-4,5,6,7-tetrahydro-indazol-1-yl]-acetic acid]
71.6	O=C(O)Cn1ncc2c1CCCC2NS(=O)(=O)c1ccc(-c2ccccc2)c(C(F)(F)F)c1 (stereo not shown) [Example 10-9a, [4-(2-Trifluoromethyl-biphenyl-4-sulfonylamino)-4,5,6,7-tetrahydro-indazol-1-yl]-acetic acid]
370	COc1cccc(-c2ccc(S(=O)(=O)NC3CCCc4c3cnn4CC(=O)O)cc2)c1 (stereo not shown) [Example 10-10a, [4-(3′-Methoxy-biphenyl-4-sulfonylamino)-4,5,6,7-tetrahydro-indazol-1-yl]-acetic acid]
321	N#Cc1cccc(-c2ccc(S(=O)(=O)NC3CCCc4c3cnn4CC(=O)O)cc2)c1 (stereo not shown) [Example 10-11a, [4-(3′-Cyano-biphenyl-4-sulfonylamino)-4,5,6,7-tetrahydro-indazol-1-yl]-acetic acid]
311	O=C(O)Cn1ncc2c1CCCC2NS(=O)(=O)c1cccc(-c2ccccc2Cl)c1 (stereo not shown) [Example 10-12a, [4-(2′-Chloro-biphenyl-3-sulfonylamino)-4,5,6,7-tetrahydro-indazol-1-yl]-acetic acid]
153	O=C(O)Cn1ncc2c1CCC[C@H]2NS(=O)(=O)c1ccc(-c2cccc(Cl)c2)cc1 [Example 10-13a, [(R)-4-(3′-Chloro-biphenyl-4-sulfonylamino)-4,5,6,7-tetrahydro-indazol-1-yl]-acetic acid]
58.1	O=C(O)Cn1ncc2c1CCCC2NS(=O)(=O)c1ccc(-c2cccc(OC(F)(F)F)c2)cc1 (stereo not shown) [Example 10-14a, [4-(3′-Trifluoromethoxy-biphenyl-4-sulfonylamino)-4,5,6,7-tetrahydro-indazol-1-yl]-acetic acid]
466	O=C(O)Cn1ncc2c1CCCC2NS(=O)(=O)c1ccc(-c2ccc(F)c(Cl)c2)cc1 (stereo not shown) [Example 10-15a, [4-(3′-Chloro-4′-fluoro-biphenyl-4-sulfonylamino)-4,5,6,7-tetrahydro-indazol-1-yl]-acetic acid]
